Data as given in ChEMBL document CHEMBL1201862, “PubChem BioAssay data set” (2004).
Calls of active or inactive are those of the source.

What was measured:
Bcl-2-related protein A1 [1] = target: T1, Bcl-2-related protein A1 (Mus musculus, UniProt Q07440); test: Bfl-1 inhibitors blocking BH3 peptide binding, confirmation, biochemical, TR-FRET, mouse Bfl-1 (AID 621);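 also: TR-FRET binding of GST-Bfl-1 to FITC-labelled Bid peptide via terbium antibody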
T1 sequence (Q07440 whole entry): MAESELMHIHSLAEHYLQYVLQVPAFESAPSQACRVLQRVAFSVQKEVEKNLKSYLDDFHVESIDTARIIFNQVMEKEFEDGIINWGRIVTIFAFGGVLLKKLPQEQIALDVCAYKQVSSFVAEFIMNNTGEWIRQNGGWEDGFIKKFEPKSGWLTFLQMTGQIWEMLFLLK

[2] = control 3'UTR Renilla luciferase suppression, dose response, counter-screen for Shn3 inhibitor project, cell-based, Clone20-Shn3RL, cherry-picked (AID 624133); assay type: functional
[3] = HeLa 2N DNA content increase, dose response, cell-based, IC50 (AID 1117349); assay type: functional
[4] = Shn3 3'UTR reporter inhibitors, dose response, cell-based, Clone20 osteoblasts, firefly luciferase, cherry-picked (AID 624132); assay type: functional;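 also: firefly luciferase luminescence from reporter carrying the Shn3 3'UTR in osteoblasts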
[5] = HeLa 4N DNA content increase, dose response, cell-based, IC50 (AID 1117351); assay type: functional
Bcl-2-related protein A1 [6] = target: T1, Bcl-2-related protein A1; test: Bfl-1 inhibitors, primary screen, biochemical, fluorescence polarization, FITC-Bid, mouse (AID 432)
[7] = half-maximal inhibitory concentration for glucagon-like peptide-1 release, STC-1 cell line, dose-response (AID 1117345); assay type: functional, cell-based
[8] = Glucagon-like peptide 1 release potency, NCI-H716 cell line, dose-response, half-maximal inhibitory concentration (AID 1117344); assay type: functional, cell-based
Genome polyprotein = Genome polyprotein (Hepatitis C virus, UniProt Q2Q167); test: HCV core protein dimerization inhibitors, dose response, biochemical, TR-FRET (AID 2159); design: species or system Hepacivirus hominis;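 also: blocks dimerization of HCV core protein measured by TR-FRET between tagged core106 pairs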
Sequence of Genome polyprotein (Q2Q167 whole entry): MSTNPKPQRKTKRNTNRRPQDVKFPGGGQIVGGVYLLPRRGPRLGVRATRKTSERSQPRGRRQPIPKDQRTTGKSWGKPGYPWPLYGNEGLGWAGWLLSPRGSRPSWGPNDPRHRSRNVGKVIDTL

[9] = P. falciparum Dd2 blood-stage growth inhibition, dose response, SYBR Green fluorescence, erythrocytes, dry powder, set 2 (AID 1159574); assay type: functional, cell-based
[10] = target: Transitional endoplasmic reticulum ATPase (Homo sapiens, UniProt P55072); test: Luminescence dose response biochemical high throughput screening assay for inhibitors of the p97 ATPase: synthesized compounds. [Related pubchem assays: 1481, 1517 ]
Sequence of Transitional endoplasmic reticulum ATPase (Homo sapiens, UniProt P55072) (P55072 whole entry): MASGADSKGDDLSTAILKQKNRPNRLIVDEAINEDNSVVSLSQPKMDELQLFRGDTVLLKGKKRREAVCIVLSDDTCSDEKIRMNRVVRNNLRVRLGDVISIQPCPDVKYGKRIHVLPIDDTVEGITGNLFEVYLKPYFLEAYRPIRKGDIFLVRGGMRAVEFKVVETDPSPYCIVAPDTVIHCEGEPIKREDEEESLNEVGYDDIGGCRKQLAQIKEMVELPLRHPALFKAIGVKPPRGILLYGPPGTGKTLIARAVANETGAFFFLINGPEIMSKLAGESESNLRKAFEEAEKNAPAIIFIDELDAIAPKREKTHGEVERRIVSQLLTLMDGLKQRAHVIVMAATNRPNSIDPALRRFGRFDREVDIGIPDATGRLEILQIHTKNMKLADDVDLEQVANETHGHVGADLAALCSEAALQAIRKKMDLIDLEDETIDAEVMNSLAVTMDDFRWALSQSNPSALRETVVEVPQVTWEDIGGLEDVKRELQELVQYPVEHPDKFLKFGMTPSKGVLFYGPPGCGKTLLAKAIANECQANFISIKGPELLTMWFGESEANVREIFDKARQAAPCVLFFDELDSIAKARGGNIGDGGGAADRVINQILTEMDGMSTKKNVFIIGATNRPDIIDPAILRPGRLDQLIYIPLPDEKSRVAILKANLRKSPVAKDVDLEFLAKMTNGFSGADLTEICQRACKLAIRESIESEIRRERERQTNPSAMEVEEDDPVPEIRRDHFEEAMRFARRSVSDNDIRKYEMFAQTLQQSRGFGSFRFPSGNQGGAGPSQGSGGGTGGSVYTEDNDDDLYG

[11] = target: Transitional endoplasmic reticulum ATPase (Homo sapiens, UniProt P55072, C522A); test: Luminescence counterscreen assay for p97 inhibitors: dose response biochemical high throughput screening assay to identify inhibitors of the C522A mutant p97 ATPase: synthesized compounds. [Related pubchem assays: 1481, 1517, 1551 ]
Sequence of Transitional endoplasmic reticulum ATPase (Homo sapiens, UniProt P55072, C522A) (P55072 2-806 C522A limits assumed): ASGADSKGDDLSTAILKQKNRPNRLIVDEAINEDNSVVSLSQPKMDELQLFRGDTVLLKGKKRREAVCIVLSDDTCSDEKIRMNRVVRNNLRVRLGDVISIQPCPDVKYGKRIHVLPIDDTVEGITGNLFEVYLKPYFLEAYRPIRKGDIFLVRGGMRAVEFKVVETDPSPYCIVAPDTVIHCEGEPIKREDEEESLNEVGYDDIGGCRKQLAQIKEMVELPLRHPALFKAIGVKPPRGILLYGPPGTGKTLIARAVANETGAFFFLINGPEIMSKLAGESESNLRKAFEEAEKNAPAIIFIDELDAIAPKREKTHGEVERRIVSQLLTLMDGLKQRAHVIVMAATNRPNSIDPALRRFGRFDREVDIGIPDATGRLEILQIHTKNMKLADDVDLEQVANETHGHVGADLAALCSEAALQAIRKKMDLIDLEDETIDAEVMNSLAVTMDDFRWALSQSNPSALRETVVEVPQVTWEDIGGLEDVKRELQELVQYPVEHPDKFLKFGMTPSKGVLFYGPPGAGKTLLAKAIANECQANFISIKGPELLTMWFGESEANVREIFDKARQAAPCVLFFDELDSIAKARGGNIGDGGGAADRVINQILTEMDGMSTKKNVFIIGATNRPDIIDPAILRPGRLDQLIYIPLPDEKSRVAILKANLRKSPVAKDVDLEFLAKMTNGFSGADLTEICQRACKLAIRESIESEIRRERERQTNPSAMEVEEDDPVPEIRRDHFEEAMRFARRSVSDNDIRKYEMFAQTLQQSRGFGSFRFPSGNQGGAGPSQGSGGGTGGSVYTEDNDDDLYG

[12] = P. falciparum ATP4 D1247Y mutant growth inhibitors, dose response, NITD609-resistant line, SYBR Green, dry powder (AID 1159571); assay type: functional, cell-based;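 also: parasites synchronized at ring stage by sorbitol before testing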
[13] = P. falciparum Dd2 growth inhibitors, dose response, SYBR Green, dry powder samples, set 9 (AID 1159568); assay type: functional, cell-based
[14] = P. falciparum 3D7-ScDHODH growth inhibitors, dose response, SYBR Green, dry powder samples (AID 1159570); assay type: functional, cell-based;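 also: parasite growth measured after 72 hours of compound exposure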
[15] = P. falciparum Dd2 growth inhibitors, dose response, SYBR Green, dry powder samples (AID 1159566); assay type: functional, cell-based;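 also: potency for growth inhibition with lower SYBR green DNA signal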
[16] = P. falciparum Dd2 growth inhibitors, dose response, SYBR Green, cherry-picked samples (AID 1159567); assay type: functional, cell-based
[17] = target: Protein-tyrosine kinase 2-beta (Homo sapiens, UniProt Q14289);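 also: potency of inhibitors of PYK2 kinase phosphorylation of poly-GT substrate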
Sequence of Protein-tyrosine kinase 2-beta (Q14289 whole entry): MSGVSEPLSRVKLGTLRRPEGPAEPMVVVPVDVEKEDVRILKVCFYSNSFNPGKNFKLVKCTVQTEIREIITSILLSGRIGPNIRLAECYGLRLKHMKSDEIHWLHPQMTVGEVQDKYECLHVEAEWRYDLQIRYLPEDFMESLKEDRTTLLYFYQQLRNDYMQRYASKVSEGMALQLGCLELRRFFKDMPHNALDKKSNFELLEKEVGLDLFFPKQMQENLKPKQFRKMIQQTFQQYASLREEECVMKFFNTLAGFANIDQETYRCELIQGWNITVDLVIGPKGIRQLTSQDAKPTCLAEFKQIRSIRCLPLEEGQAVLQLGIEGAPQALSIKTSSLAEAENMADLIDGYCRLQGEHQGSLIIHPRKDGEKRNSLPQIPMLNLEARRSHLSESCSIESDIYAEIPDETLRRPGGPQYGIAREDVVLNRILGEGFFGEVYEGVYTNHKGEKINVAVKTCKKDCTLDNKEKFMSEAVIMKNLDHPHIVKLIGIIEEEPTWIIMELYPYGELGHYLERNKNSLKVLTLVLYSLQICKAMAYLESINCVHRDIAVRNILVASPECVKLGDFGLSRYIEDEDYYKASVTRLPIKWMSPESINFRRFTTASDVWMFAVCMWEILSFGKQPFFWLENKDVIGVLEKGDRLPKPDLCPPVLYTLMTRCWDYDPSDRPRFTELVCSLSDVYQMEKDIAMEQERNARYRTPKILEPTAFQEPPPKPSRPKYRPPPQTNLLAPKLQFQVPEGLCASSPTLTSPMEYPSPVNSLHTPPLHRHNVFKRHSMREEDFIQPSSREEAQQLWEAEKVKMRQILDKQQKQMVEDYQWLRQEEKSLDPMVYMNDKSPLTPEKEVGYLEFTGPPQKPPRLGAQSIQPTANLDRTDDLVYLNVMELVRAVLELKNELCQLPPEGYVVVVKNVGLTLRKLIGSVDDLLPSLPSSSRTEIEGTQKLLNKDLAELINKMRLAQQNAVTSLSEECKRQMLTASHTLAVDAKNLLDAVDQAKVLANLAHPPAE

[18] = target: Heat shock protein HSP 90-alpha (Homo sapiens, UniProt P07900); test: Luminescence-based dose response biochemical high throughput screening assay for inhibitors of the Heat Shock Protein 90 (HSP90). [Related pubchem assays: 1831 (Summary AID.), 1846 (Confirmation screen.), 1789 (Primary screen.)]
Protein skinhead-1 = target: T2, Protein skinhead-1 (Caenorhabditis elegans, UniProt P34707); assay type: functional
T2 sequence (P34707 whole entry): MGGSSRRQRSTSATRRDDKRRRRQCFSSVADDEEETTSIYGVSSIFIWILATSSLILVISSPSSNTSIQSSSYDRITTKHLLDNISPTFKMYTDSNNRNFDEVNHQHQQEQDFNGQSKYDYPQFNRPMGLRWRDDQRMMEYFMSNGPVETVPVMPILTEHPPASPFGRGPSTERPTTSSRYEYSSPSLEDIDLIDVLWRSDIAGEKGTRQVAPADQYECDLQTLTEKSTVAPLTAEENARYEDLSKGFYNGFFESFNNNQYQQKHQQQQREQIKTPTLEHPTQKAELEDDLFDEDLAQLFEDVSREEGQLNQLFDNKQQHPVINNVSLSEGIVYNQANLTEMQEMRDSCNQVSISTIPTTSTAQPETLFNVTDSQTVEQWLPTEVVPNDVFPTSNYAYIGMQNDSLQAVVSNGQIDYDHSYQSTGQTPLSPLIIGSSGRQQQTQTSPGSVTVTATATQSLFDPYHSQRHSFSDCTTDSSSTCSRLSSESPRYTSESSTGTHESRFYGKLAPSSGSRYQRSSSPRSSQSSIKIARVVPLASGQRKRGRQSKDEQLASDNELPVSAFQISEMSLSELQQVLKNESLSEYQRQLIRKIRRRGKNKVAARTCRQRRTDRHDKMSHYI

[19] = target: Glucose-6-phosphate 1-dehydrogenase (Homo sapiens, UniProt P11413); test: human G6PD enzyme inhibitors, dose response, selectivity assay for P. falciparum G6PD inhibitor project, biochemical, fluorescence (AID 504792); assay type: functional
Sequence of Glucose-6-phosphate 1-dehydrogenase (P11413 whole entry): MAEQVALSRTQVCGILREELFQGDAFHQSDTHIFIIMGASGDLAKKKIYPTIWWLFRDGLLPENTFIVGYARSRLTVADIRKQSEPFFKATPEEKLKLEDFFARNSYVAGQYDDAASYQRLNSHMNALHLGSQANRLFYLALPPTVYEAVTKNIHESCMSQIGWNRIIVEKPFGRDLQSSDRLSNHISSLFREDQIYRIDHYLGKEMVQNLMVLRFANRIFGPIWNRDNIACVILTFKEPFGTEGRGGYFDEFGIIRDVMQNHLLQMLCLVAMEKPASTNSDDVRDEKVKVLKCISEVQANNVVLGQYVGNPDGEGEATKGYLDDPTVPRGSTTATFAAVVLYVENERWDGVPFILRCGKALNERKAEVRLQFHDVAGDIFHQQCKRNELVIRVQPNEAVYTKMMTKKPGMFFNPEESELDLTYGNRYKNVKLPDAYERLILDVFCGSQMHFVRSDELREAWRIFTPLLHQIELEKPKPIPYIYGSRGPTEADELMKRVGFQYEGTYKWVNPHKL

[20] = Plasmodium falciparum Dd2 Sybr green parasite growth Measured in Cell-Based and Microorganism Combination System Using Plate Reader - 2153-01_Inhibitor_Dose_DryPowder_Activity_Set3.; assay type: functional
[21] = HepG2 cell cytotoxicity, dose response, cytotoxicity control, plate reader, dry powder samples (AID 1159569); assay type: functional, cell-based;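 also: inhibitor potency with signal falling toward the positive control level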
Galanin receptor type 2 = Galanin receptor type 2 (Homo sapiens, UniProt O43603); test: Dose Response cell-based high-throughput screening assay to identify antagonists of galanin receptor 2 (GALR2). [Related pubchem assays: 828, 866 ]; assay type: functional
Sequence of Galanin receptor type 2 (O43603 whole entry): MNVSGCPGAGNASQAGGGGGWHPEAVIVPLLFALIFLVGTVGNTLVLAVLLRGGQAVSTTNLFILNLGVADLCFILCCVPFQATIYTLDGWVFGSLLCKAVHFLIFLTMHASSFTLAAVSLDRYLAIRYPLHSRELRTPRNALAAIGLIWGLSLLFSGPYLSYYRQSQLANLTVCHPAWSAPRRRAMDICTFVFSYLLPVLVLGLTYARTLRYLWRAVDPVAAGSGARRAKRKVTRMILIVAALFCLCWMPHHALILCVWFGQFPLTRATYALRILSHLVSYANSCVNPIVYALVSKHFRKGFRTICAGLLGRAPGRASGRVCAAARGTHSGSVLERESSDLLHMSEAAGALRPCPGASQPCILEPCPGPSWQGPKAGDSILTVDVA

H4 = test: Luminescence Cell-Based Dose Response HTS to Identify Activators of 5'UTR Stem-Loop Driven Prion Protein mRNA Translation in H4 Neuroglioblastoma Cells. [Related pubchem assays: 1829 (Project Summary), 1814 (Primary HTS)]; assay type: functional; settings: Homo sapiens
[22] = Luminescence Cell-Based Dose Response HTS to Identify Activators of Luciferase Translation or Activity in H4 […] Cells. [Related pubchem assays: 1829 (Project Summary), 1814 (Primary HTS)]; assay type: functional
[23] = Luminescence Cell-Based Dose Confirmation HTS to Identify Activators of 5'UTR Stem-Loop Driven Alpha-Synuclein mRNA Translation in H4 Neuroglioblastoma Cells. [Related pubchem assays: 1829 (Project Summary), 1814 (Primary HTS)]; assay type: functional
INS1 = test: beta cell apoptosis inhibitors, cytokine rescue, dose response, luminescence, retest (AID 449756); assay type: functional, cell-based; settings: Rattus norvegicus;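 also: cell death triggered by IL-1 beta plus TNF-alpha plus IFN-gamma mixture; protective hits raise ATP signal compared with cytokine alone wells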
[24] = growth suppression of PTEN-null colon cells, dose response, cell-based, HCT116 PTEN knockout (AID 1047); assay type: functional;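 also: HCT116 colon tumor cells with PTEN knocked out; cells exposed to compound for 60 hours before readout; potency for loss of cell viability measured by luminescence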
BJ [25] = test: cytotoxicity toward BJ-TERT-LT-ST fibroblasts, dose response, cell-based, RAS-independent, luminescence (AID 1935); assay type: functional; settings: Homo sapiens;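 also: BJ fibroblasts immortalized with TERT plus LT and ST oncogenes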
[26] = cytotoxicity toward DRD oncogenic fibroblasts, dose response, cell-based, non-viral oncogenic, luminescence (AID 1934); assay type: functional; settings: Homo sapiens
[27] = Luminescence Cell-Based Dose Confirmation HTS to Identify Inhibitors of Polyadenylation.; assay type: functional
BJ [28] = test: cells; assay type: functional, cell-based; settings: Homo sapiens
BJ [29] = test: cytotoxicity toward BJ-TERT fibroblasts, dose response, cell-based, RAS-independent, luminescence (AID 1933); assay type: functional; settings: Homo sapiens
[30] = growth suppression of beta-catenin-knockout colon cells, dose response, cell-based, HCT116, human colon tumor (AID 1045); assay type: functional;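 also: HCT116 colon tumor cells with beta catenin knocked out; cells exposed to compound for 60 hours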

CC[C@H](C)C(=O)O[C@H]1C[C@@H](C)C=C2C=C[C@H](C)[C@H](CC[C@@H]3C[C@@H](O)CC(=O)O3)[C@H]21 [LOVASTATIN]
IC50 (Bcl-2-related protein A1 [1]): > 100 µM (not active) | AC50 [2]: 4.74 µM (active) | IC50 [3]: > 10 µM (inactive) | AC50 [4]: 1.62 µM (active) | IC50 [5]: > 10 µM (inactive) | IC50 (Bcl-2-related protein A1 [6]): > 100 µM (not active) | IC50 [7]: > 40 µM (inactive) | IC50 [8]: 32.9 µM (inactive)

COc1ccc(S(=O)(=O)N2CCOCC2)cc1NC(=O)c1cccc(-n2cccc2)c1
IC50 (Genome polyprotein): > 49.8 µM (not active)

COc1ccc(NC(=O)N2CCCCN3[C@@H](CO)[C@H](c4ccc(C#Cc5ccccc5)cc4)[C@@H]3C2)cc1
AC50 [9]: 0.036 µM (active)

N#CC(C#N)=Cc1c2ccccc2cc2ccccc12
IC50 [10]: > 50 µM (not active) | IC50 [11]: > 50 µM (not active)

COc1cccc(-c2cccc(-c3nc(C(=O)NCc4ccc(Oc5ccccc5)cc4)cc4c3[C@@H](CCO)N([S+]([O-])C(C)(C)C)C4)c2)c1 (some centres undefined)
AC50 [12]: 0.449 µM (active) | AC50 [13]: 0.447 µM (active) | AC50 [14]: 0.826 µM (active) | AC50 [15]: 0.237 µM (active) | AC50 [16]: 0.671 µM (active)

CCOC(=O)C1=C(c2ccccc2)OC(N)=C(C#N)C1C1CCCCC1 (centres undefined)
IC50 [17]: > 69.5 µM (not active)

[O-]/[N+](=C\c1ccco1)c1ccc(Cl)cc1
IC50 [18]: 4.31 µM (active) | IC50 (Protein skinhead-1): > 100 µM (inactive) | IC50 [19]: 27.6 µM (inactive)

CCCC(=O)Nc1ccc2c(c1)OC[C@@H](C)N(Cc1cccc(F)c1)C[C@@H](C)[C@H](OC)CN(C)C2=O
AC50 [12]: 2.24 µM (active) | AC50 [14]: 5.76 µM (active) | AC50 [15]: 0.884 µM (active) | AC50 [20]: 1.82 µM (active) | AC50 [16]: 1.09 µM (active) | AC50 [21]: 58.9 µM (active)

N#C/C(=C\c1cccs1)c1nc2ccccc2[nH]1
IC50 (Galanin receptor type 2): > 42 µM (not active) | EC50 (H4): 15.8 µM (active) | EC50 [22]: 26.6 µM (active) | EC50 [23]: 2.67 µM (active)

N#C/C(=C\c1ccc([N+](=O)[O-])o1)c1nc2ccccc2[nH]1
AC50 (INS1): 3.02 µM (active) | EC50 [24]: 0.985 µM (active) | EC50 (BJ [25]): > 150 µM (inconclusive) | EC50 [26]: 5.9 µM (inconclusive) | EC50 [27]: 3.64 µM (active) | EC50 (BJ [28]): > 150 µM (inconclusive) | EC50 (BJ [29]): 2.27 µM (inconclusive) | EC50 [30]: 1.01 µM (active)
